Active and inactive are the calls of the source. The rule behind the calls is not given here.
How the values were obtained:
LLC-PK1 [1] = experiment: Renoprotective activity in pig LLC-PK1 cells assessed as inhibition of cisplatin-induced cell death by measuring cell viability at 50 uM by flow cytometry; format: functional, cell-based; details: Sus scrofa
Sus scrofa [2] = species on record: Sus scrofa; experiment: Inhibition of cisplatin-induced MAPK JNK phosphorylation in pig LLC-PK1 cells at 10 to 50 uM after 24 hrs by Western blot method; format: cell-based
Sus scrofa [3] = species on record: Sus scrofa; experiment: Inhibition of cisplatin-induced MAPK p38 phosphorylation in pig LLC-PK1 cells at 10 to 50 uM after 24 hrs by Western blot method; format: cell-based
LLC-PK1 [4] = experiment: Renoprotective activity in pig LLC-PK1 cells assessed as inhibition of cisplatin-induced oxidative stress by measuring cell viability at 25 uM after 24 hrs by MTT assay relative to control; format: functional, Sus scrofa
LLC-PK1 [5] = experiment: Renoprotective activity in pig LLC-PK1 cells assessed as inhibition of cisplatin-induced cleaved caspase-3 levels at 10 to 50 uM after 24 hrs by Western blot method; format: functional, cell-based; details: Sus scrofa
LLC-PK1 [6] = experiment: Renoprotective activity in pig LLC-PK1 cells assessed as inhibition of cisplatin-induced cytotoxicity by measuring cell viability at 10 to 50 uM by phase contrast microscopic method; format: functional, cell-based; details: Sus scrofa
LLC-PK1 [7] = experiment: Renoprotective activity in pig LLC-PK1 cells assessed as inhibition of cisplatin-induced oxidative stress by measuring cell viability up to 250 uM after 24 hrs by MTT assay; format: functional, cell-based; details: Sus scrofa

C/C=C1/[C@@H](n2cc(CO)nn2)C[C@H]2[C@@H]3CCC4=CC(=O)CC[C@]4(C)[C@H]3CC[C@]12C
inhibition (LLC-PK1 [1]): Active
inhibition (Sus scrofa [2]): Active
inhibition (Sus scrofa [3]): Active
Activity (LLC-PK1 [4]): >90%
inhibition (LLC-PK1 [5]): Active
inhibition (LLC-PK1 [6]): Active

C/C=C1/[C@@H](n2cc(CCCC#N)nn2)C[C@H]2[C@@H]3CCC4=CC(=O)CC[C@]4(C)[C@H]3CC[C@]12C
inhibition (LLC-PK1 [7]): inactive

C/C=C1/[C@@H](n2cc(-c3ccc(F)cc3)nn2)C[C@H]2[C@@H]3CCC4=CC(=O)CC[C@]4(C)[C@H]3CC[C@]12C
inhibition (LLC-PK1 [7]): Active

C/C=C1/[C@@H](n2cc(-c3ccccc3)nn2)C[C@H]2[C@@H]3CCC4=CC(=O)CC[C@]4(C)[C@H]3CC[C@]12C
inhibition (LLC-PK1 [7]): Active

C/C=C1/[C@@H](n2cc(-c3ccc(C)cc3)nn2)C[C@H]2[C@@H]3CCC4=CC(=O)CC[C@]4(C)[C@H]3CC[C@]12C
inhibition (LLC-PK1 [7]): Active

C/C=C1/[C@@H](n2cc(CCCC)nn2)C[C@H]2[C@@H]3CCC4=CC(=O)CC[C@]4(C)[C@H]3CC[C@]12C
inhibition (LLC-PK1 [7]): inactive

— ChEMBL document CHEMBL4020796, “Evaluation of guggulsterone derivatives as novel kidney cell protective agents against cisplatin-induced nephrotoxicity” (2017)
